The source of these data is patent publication US9216992B2, “Thieno[3,2-c]pyridine potassium channel inhibitors” (Xention Limited, priority 2005, dated 2015).

One test deals with T1, human Kv1.3 (Homo sapiens, UniProt P22001).
T1 construct: expressed in transfected cells; host or cells: stably transfected cells
The test can be described thus: Kv1.3 Autopatch Electrophysiology. The test is classed as cell-based. The settings on record: 1 μM compound; CHO cells stably transfected with human Kv1.3; AutoPatch whole cell mode; room temperature; read-out: Kv 1.3% Inhibition at 1 μM. As to the method:
Kv1.3 Autopatch Electrophysiology Method
Cells stably transfected with cDNA for human Kv1.3 (in pcDNA3.1) were grown in Ex-cell 302 serum-free medium for CHO cells, supplemented with 10 μl/ml [100×] glutamine, 500 μg/ml G418 ([…]), and 1% HT supplement (50×, hypoxanthine and thymidine). Compounds were tested on these cells using the AutoPatch technology in whole cell mode.
The external bathing solution contained (in mM): 150 NaCl, 10 KCl, 1 MgCl2, 3 CaCl2, 10 HEPES, pH 7.4 with NaOH. Patch pipettes were filled with an electrode solution of composition (in mM): 100 K-Gluconate, 20 KCl, 1 MgCl2, 1 CaCl2, 10 HEPES, 11 EGTA, 5 ATP—Na2, 2 Glutathione pH 7.2 with KOH.
(§1) Compounds were dissolved in DMSO (100%) and made up in the external bather at a concentration of 1 μM. All experiments were conducted at room temperature (22-24° C.).
(§2) A cell suspension (10 ml), with a density of 100,000 cells/ml, was aliquoted into a 15 ml centrifuge tube and transferred to an incubator (37° C., 5% CO2) for approximately one hour before use. Following 60 min incubation, a tube was taken and centrifuged at 1000 rpm for 4 mins at room temperature. 9.5 ml supernatant was thence discarded, leaving a cell pellet at the bottom of the tube. The pellet was then resuspended using 100 μl of cold (4° C.), filtered (0.22 μm), 0.2% BSA/bather solution (0.02 g BSA/10 ml bather). The bottom of the tube was manually agitated gently until the solution became cloudy with cells. The 100 μl cell resuspension solution was then stored on the bench at 4° C. (using a Peltier-based temperature control device) until used.
(§3) A length of capillary glass (1B150F-4, WPI) was dipped into the cell suspension solution, such that ˜3 cm column of fluid was taken up by capillary action. A Ag/AgCl wire was dropped into the non-dipped end of the capillary also. The outside of the solution-filled end of the capillary was then dried and the capillary was loaded into the AutoPatch™. Borosilicate glass patch pipettes (from 1.5 mm OD, thin-walled filamented, GC150-TF capillary glass, Harvard) were pulled using a DMZ pipette puller (Zeitz Instruments), and were back-filled using the internal pipette solution, being careful that no bubbles remain at the tip or in the body of the pipette. Patch pipettes typically had resistances of 2.3-3.5 MΩ. Once filled, the pipette tip and a proportion of the shaft (˜15 mm) were dipped into Sigmacote (Sigma). The recording pipette was then loaded into the AutoPatch™. Automated patch-clamping was initiated by the operator, but thereafter AutoPatch.exe continued the experiment providing that pre-set conditions and criteria were satisfied.
(§4) Whole cell patch-clamp recordings were made using the AutoPatch™ rig, which incorporated an EPC9 or EPC10 amplifier (HEKA, Germany) under control of Pulse software (v8.54 or v8.76, HEKA, Germany), a motion controller with 2 translators (Newport, UK), valve controller (VF1) and a c-level suction device all at room temperature (22-24° C.). This equipment was completely under the control of AutoPatch.exe and operator intervention was only made when there was a requirement to refill the drug reservoirs or to prevent the loss of a cell due to a technical error. Cells with an Rseries greater than 18 MΩ were discounted from the experiment.
Qualification stages prior to perfusion and drug application ensured that the observed current met the criteria for the experiment. Only those cells with an IK>400 pA were used for experiments. Cells were continuously perfused with external solution at a flow rate of 1.8-2 ml/minute. […] Online analysis of the hKv1.3 current during the application of compounds was performed by the AutoPatch™ software. Voltage-step protocols and analysis of data was performed as described for conventional electrophysiology.
(§5) Electrophysiology voltage-step protocols and analysis of data was performed as follows. Data was sampled at 5 kHz, and filtered with a −3 dB bandwidth of 2.5 kHz. Cells were held at a voltage of −80 mV. […]

For the next test, the target named is T2, human Kv1.5 (Homo sapiens, UniProt P22460).
T2 construct: expressed in transfected cells; host or cells: stably transfected cells
Briefly: Kv1.5 Autopatch Electrophysiology. The test is classed as cell-based. The settings on record: 1 μM compound; CHO cells stably transfected with human Kv1.5; AutoPatch whole cell mode; room temperature; read-out: Kv 1.5% Inhibition at 1 μM. As to the method: Kv1.5 Autopatch Electrophysiology Method
Cells stably transfected with cDNA for human Kv1.5 (in pEF6::VA-His-TOPO) were grown in Ex-cell 302 serum-free medium for CHO cells, supplemented with 10 μl/ml [100×] glutamine, 5 μg/ml blasticidin and 1% HT supplement (50×, hypoxanthine and thymidine). Compounds were tested on these cells using the AutoPatch technology in whole cell mode.
The external bathing solution contained (in mM): 150 NaCl, 10 KCl, 1 MgCl2, 3 CaCl2, 10 HEPES, pH 7.4 with NaOH. Patch pipettes were filled with an electrode solution of composition (in mM): 160 KCl, 0.5 MgCl2, 10 HEPES, 1 EGTA, pH 7.4 with KOH.
as §1, §2, §3, §4
Qualification stages prior to perfusion and drug application ensured that the observed current met the criteria for the experiment. Only those cells with an IK>500 pA were used for experiments. Cells were continuously perfused with external solution at a flow rate of 1.8-2 ml/minute. […] Online analysis of the hKv1.5 current during the application of compounds was performed by the AutoPatch™ software. Voltage-step protocols and analysis of data was performed as described for conventional electrophysiology.
as §5

What is called inhibition is the change of the read-out against control, counted positive when it falls.

T2 sequence (P22460 whole entry): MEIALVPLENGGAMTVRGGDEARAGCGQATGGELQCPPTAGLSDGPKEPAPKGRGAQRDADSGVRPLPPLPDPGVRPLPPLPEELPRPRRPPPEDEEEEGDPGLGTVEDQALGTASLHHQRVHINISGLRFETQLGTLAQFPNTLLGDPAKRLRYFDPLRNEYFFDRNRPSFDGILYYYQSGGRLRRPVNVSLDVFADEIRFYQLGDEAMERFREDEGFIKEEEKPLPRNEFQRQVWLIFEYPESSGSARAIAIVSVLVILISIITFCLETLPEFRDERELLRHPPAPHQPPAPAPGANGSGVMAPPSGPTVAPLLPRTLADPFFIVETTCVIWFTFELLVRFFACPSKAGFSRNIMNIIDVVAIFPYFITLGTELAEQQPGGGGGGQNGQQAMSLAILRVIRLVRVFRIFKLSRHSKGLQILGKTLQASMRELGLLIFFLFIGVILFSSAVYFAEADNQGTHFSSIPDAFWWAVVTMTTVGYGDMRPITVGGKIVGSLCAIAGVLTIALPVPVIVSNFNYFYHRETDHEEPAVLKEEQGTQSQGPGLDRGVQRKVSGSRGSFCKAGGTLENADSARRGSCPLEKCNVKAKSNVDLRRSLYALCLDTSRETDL
T1 sequence (P22001 whole entry): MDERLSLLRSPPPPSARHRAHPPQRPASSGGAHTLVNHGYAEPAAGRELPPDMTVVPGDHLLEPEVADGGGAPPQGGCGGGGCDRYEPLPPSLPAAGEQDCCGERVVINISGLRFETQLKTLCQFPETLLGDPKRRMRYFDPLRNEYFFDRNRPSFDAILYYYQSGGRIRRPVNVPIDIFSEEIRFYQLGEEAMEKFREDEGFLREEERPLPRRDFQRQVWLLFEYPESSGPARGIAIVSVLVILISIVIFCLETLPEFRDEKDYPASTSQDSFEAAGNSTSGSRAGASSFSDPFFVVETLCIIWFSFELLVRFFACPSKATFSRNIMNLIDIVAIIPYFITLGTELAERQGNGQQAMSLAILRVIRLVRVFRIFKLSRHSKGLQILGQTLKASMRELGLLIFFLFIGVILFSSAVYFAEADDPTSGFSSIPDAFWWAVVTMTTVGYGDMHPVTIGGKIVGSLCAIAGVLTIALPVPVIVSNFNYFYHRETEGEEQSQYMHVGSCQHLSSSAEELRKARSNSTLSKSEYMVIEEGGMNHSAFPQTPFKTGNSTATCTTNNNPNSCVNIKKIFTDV

In the case of `Cc1ccc(-c2csc3c(-c4ccc(N(C)C)cc4)cnc(NCc4ccccc4)c23)cc1` [Example 42, Benzyl-[7-(4-dimethylamino-phenyl)-3-p-tolyl-thieno[3,2-c]pyridin-4-yl]-amine], the inhibition at 1 µM on human Kv1.3 was determined as 24.1%; at human Kv1.5, 14.5%.
Regarding `Cc1ccc(-c2csc3ccnc(NCc4ccccc4)c23)cc1` [Example 24, Benzyl-(3-p-tolyl-thieno[3,2-c]pyridin-4-yl)-amine], the inhibition at 1 µM came out at 81.2% on human Kv1.3 and 90.2% at human Kv1.5.
In the case of `COc1cccc(-c2csc3ccnc(NCc4ccco4)c23)c1` [Example 28, Furan-2-ylmethyl-[3-(3-methoxy-phenyl)-thieno[3,2-c]pyridin-4-yl]-amine], the inhibition at 1 µM on human Kv1.3 is 72.7%; at human Kv1.5, 91.9%.
Take `Cc1ccc(-c2csc3c(-c4cccnc4)cnc(NCc4ccccc4)c23)cc1` [Example 39, Benzyl-(7-pyridin-3-yl-3-p-tolyl-thieno[3,2-c]pyridin-4-yl)-amine]: the results for the inhibition at 1 µM on human Kv1.3 and on human Kv1.5 were 50.1% and 90%, respectively.
For `c1ccc(CNc2nccc3scc(-c4ccccc4)c23)cc1` [Example 21, Benzyl-(3-phenyl-thieno[3,2-c]pyridin-4-yl)-amine], the inhibition at 1 µM on human Kv1.3 worked out at 61.5%; at human Kv1.5 it was 77.4%.
On the same counts, the results for `Cc1cc2scc(-c3ccccc3)c2c(NCc2ccccc2)n1` [Example 50, Benzyl-(6-methyl-3-phenyl-thieno[3,2-c]pyridin-4-yl)-amine] are 23.7% and 50.8%.
For the compound `Cc1ccc(-c2csc3ccnc(NCc4ccco4)c23)cc1` [Example 29, Furan-2-ylmethyl-(3-p-tolyl-thieno[3,2-c]pyridin-4-yl)-amine], the inhibition at 1 µM at human Kv1.3 came to 66.2%; on human Kv1.5, 86.1%.
Turning to `Fc1ccc(-c2csc3ccnc(NCc4ccco4)c23)cc1` [Example 27, [3-(4-Fluoro-phenyl)-thieno[3,2-c]pyridin-4-yl]-furan-2-ylmethyl-amine], the values for the inhibition at 1 µM on human Kv1.3 and at human Kv1.5 were 45.9% and 70.4%, respectively.
Take `Cc1ccc(-c2csc3c(-c4ccncc4)cnc(NCc4ccccc4)c23)cc1` [Example 40, Benzyl-(7-pyridin-4-yl-3-p-tolyl-thieno[3,2-c]pyridin-4-yl)-amine]: the inhibition at 1 µM at human Kv1.3 came to 49.9%; at human Kv1.5, 36.3%.
For `Cc1ccc(-c2csc3c(-c4ccc(F)cc4)cnc(NCc4ccccc4)c23)cc1` [Example 45, Benzyl-[7-(4-fluoro-phenyl)-3-p-tolyl-thieno[3,2-c]pyridin-4-yl]-amine], the figures for the inhibition at 1 µM on human Kv1.3 and at human Kv1.5 were 34% and 24.7%, respectively.
Regarding `Cc1ccc(-c2csc3c(-c4ccc(O)cc4)cnc(NCc4ccccc4)c23)cc1` [Example 37, 4-(4-Benzylamino-3-p-tolyl-thieno[3,2-c]pyridin-7-yl)-phenol], the inhibition at 1 µM at human Kv1.3 came out at 15.7%; on human Kv1.5, 39.9%.
Regarding `COc1cccc(-c2csc3ccnc(NCc4ccccc4)c23)c1` [Example 23, Benzyl-[3-(3-methoxy-phenyl)-thieno[3,2-c]pyridin-4-yl]-amine], the values for the inhibition at 1 µM on human Kv1.3 and at human Kv1.5 were 58% and 79.6%, respectively.
